Literature values, collected in patent US20060193908A1, “Extended release formulations of poorly soluble antibiotics” (priority 2004, published 2006).

Conditions: USP 27/NF 22 listing

Compound: CC[C@H]1OC(=O)[C@H](C)[C@@H](O[C@H]2C[C@@](C)(OC)[C@@H](O)[C@H](C)O2)[C@H](C)[C@@H](O[C@@H]2O[C@H](C)C[C@H](N(C)C)[C@H]2O)[C@](C)(OC)C[C@@H](C)C(=O)[C@H](C)[C@@H](O)[C@]1(C)O [clarithromycin, Clarithromycin]
- solubility in water (USP descriptive term): practically insoluble in water
